In patent US10781215B2, “Heterobicyclic compounds useful as modulators of IL-12, IL-23 and/or IFNα responses” (BRISTOL-MYERS SQUIBB COMPANY, priority 2016, dated 2020) one finds IC50 and EC50 data, which are given here for 19 molecules.

Molecules are shown by their SMILES. pEC50, pIC50: −log10 of the molar value.

In test [1] the test system is IFNα stimulated Kit225 T cells (STAT-dependent luciferase reporter). The test is described as follows: Kit225 T cell assay, IFNα stimulated STAT-dependent luciferase reporter. It counts as cell-based. Particulars: 200 U/mL human recombinant IFNα, 5-6 hours. Here is the method: (§1) Kit225 T cells with a stably-integrated STAT-dependent luciferase reporter were plated in RPMI (Gibco) containing 10% heat-inactivated FBS (Gibco) and 100 U/mL PenStrep (Gibco). The cells were then stimulated with either 20 ng/mL human recombinant IL-23 or 200 U/mL human recombinant IFNα (PBL InterferonSource) for 5-6 hours. Luciferase expression was measured using the STEADY-GLO® Luciferase Assay System (Promega) according to the manufacturer's instructions. Inhibition data were calculated by comparison to no inhibitor control wells for 0% inhibition and non-stimulated control wells for 100% inhibition. Dose response curves were generated to determine the concentration required to inhibit 50% of cellular response (IC50) as derived by non-linear regression analysis.
Background: Reporter assays use an easily measured gene product as a stand-in for the process of interest.

Test [2] has as its target T1, human Tyk2 (amino acids 575-869, His-tagged) (Homo sapiens, UniProt P29597).
T1 construct: made in house
The test is described as follows: Probe displacement assay (SPA format). Particulars: radiolabeled probe 40 nM, Tyk2 2.5 nM. It counts as binding. Here is the method:
Probe Displacement Assay (SPA Format) The probe displacement assay is conducted as follows: In a […], test compounds along with recombinantly expressed His-tagged protein corresponding to amino acids 575-869 of human Tyk2 (sequence shown below) at 2.5 nM, 40 nM ((R)—N-(1-(3-(8-methyl-5-(methylamino)-8H-imidazo [4,5-d]thiazolo [5,4-b]pyridin-2-yl)phenyl)ethyl)-2-([^3H]methylsulfonyl)benzamide) (preparation described below) and 80 μg/mL Copper His-Tag scintillation proximity assay beads (Perkin Elmer, Catalog # RPNQ0095) in 50 mM HEPES, pH 7.5, containing 100 μg/mL bovine serum albumin and 5% DMSO were incubated for 30 minutes at room temperature. The amount of radiolabeled probe (preparation described below) bound to Tyk2 was then quantified by scintillation counting, and the inhibition by the test compound calculated by comparison to wells either with no inhibitor (0% inhibition) or without Tyk2 (100% inhibition). The EC50 value is defined as the concentration of test compound required to inhibit radiolabeled probe binding by 50%. Probe Displacement Assay (HTRF Format)

The subject of test [3] is IL-23 stimulated Kit225 T cells (STAT-dependent luciferase reporter). Nature of the test: Kit225 T cell assay, IL-23 stimulated STAT-dependent luciferase reporter. To be noted: 20 ng/mL human recombinant IL-23, 5-6 hours. It counts as cell-based. Here is the method:
as §1

T1 sequence (P29597 with tags, fused parts or gaps): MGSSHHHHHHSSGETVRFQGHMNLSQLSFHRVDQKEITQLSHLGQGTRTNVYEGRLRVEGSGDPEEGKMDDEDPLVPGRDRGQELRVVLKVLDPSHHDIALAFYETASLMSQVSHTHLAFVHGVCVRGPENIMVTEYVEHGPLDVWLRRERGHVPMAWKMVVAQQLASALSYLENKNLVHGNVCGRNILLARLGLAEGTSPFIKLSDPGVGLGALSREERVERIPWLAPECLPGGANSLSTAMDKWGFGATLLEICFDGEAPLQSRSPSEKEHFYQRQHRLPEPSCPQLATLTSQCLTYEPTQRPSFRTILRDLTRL

`Cc1nc2c(Nc3ccccc3S(C)(=O)=O)cc(Nc3ccc(N4CCCC4=O)cn3)nc2[nH]1` [Example 24, 1-[6-({7-[(2-methanesulfonylphenyl)amino]-2-methyl-3H-imidazo[4,5-b]pyridin-5-yl}amino)pyridin-3-yl]pyrrolidin-2-one]: the results for the pIC50 in test [1] and in test [3] were 6.20 and 5.91, respectively. Besides, the pEC50 (in general, the EC50 on a negative log10 scale, so that one unit is a factor of ten) in test [2] was 7.82.

Consider `Cc1nc2c(Nc3ccccc3S(C)(=O)=O)cc(Nc3cc(C)n(C)n3)nc2[nH]1` [Example 26, 5-N-(1,5-dimethyl-1H-pyrazol-3-yl)-7-N-(2-methanesulfonylphenyl)-2-methyl-3H-imidazo[4,5-b]pyridine-5,7-diamine], for which the pIC50 (in general, −log10 of the IC50, conventionally taken in molar units) is 6.92 in test [1] and 6.85 in test [3]. For the same molecule, the pEC50 in test [2] is 7.82.

With `Cc1nc2c(Nc3ccccc3S(C)(=O)=O)cc(Nc3cc(C)c(F)cn3)nc2[nH]1` [Example 31, 5-N-(5-fluoro-4-methylpyridin-2-yl)-7-N-(2-methanesulfonylphenyl)-2-methyl-3H-imidazo[4,5-b]pyridine-5,7-diamine], the pIC50 was 6.98 in test [1] and 6.63 in test [3]. The molecule further gave a pEC50 in test [2] of 7.92.

`Cc1nc2c(Nc3ccccc3C(N)=O)cc(Nc3ccc(F)cn3)nc2[nH]1` [Example 32, 2-({5-[(5-fluoropyridin-2-yl)amino]-2-methyl-3H-imidazo[4,5-b]pyridin-7-yl}amino)benzamide]: the pIC50 was 5.94 in test [1] and 5.48 in test [3]. In addition, the pEC50 in test [2] was 6.78.

Take `COc1ccccc1Nc1cc(Nc2ccc(F)cn2)nc2[nH]c(C)nc12` [Example 38, 5-N-(5-fluoropyridin-2-yl)-7-N-(2-methoxyphenyl)-2-methyl-3H-imidazo[4,5-b]pyridine-5,7-diamine]: the pIC50 is 5.29 in test [1] and 5.09 in test [3]. The pEC50 in test [2] was 6.29.

In the case of `COc1ccnc(Nc2cc(Nc3ccccc3S(C)(=O)=O)c3nc(C)[nH]c3n2)c1` [Example 18, 7-N-(2-methanesulfonylphenyl)-5-N-(4-methoxypyridin-2-yl)-2-methyl-3H-imidazo[4,5-b]pyridine-5,7-diamine], the pIC50 in test [1] was 5.44; in test [3] it was 5.62. In addition, the pEC50 in test [2] is 6.62.

On to `Cc1cccc(Nc2cc(Nc3ccccc3S(C)(=O)=O)c3nc(C)[nH]c3n2)n1` [Example 29, 7-N-(2-methanesulfonylphenyl)-2-methyl-5-N-(6-methylpyridin-2-yl)-3H-imidazo[4,5-b]pyridine-5,7-diamine], for which the pIC50 in test [1] is 7.46; in test [3] it was 7.68. The molecule also gave a pEC50 in test [2] of 8.22.

As to `COc1ccccc1Nc1cc(Nc2ccc(N3CCOCC3)cn2)nc2[nH]c(C)nc12` [Example 37, 7-N-(2-methoxyphenyl)-2-methyl-5-N-[5-(morpholin-4-yl)pyridin-2-yl]-3H-imidazo[4,5-b]pyridine-5,7-diamine], the pIC50 in test [1] is 5.99; in test [3], 5.41. The molecule also had a pEC50 in test [2] of 6.36.

Consider `Cc1nc2c(Nc3ccccc3S(C)(=O)=O)cc(Nc3ccc(F)cn3)nc2[nH]1` [Example 2, N5-(5-fluoropyridin-2-yl)-2-methyl-N7-(2-(methylsulfonyl)phenyl)-3H-imidazo[4,5-b]pyridine-5,7-diamine], for which the pIC50 was 7.06 in test [1] and 6.79 in test [3]. In test [2], this molecule had a pEC50 of 7.89.

In the case of `Cc1nc2c(Nc3ccccc3S(C)(=O)=O)cc(Nc3cc(C#N)ccn3)nc2[nH]1` [Example 3, 2-({7-[(2-methanesulfonylphenyl)amino]-2-methyl-3H-imidazo[4,5-b]pyridin-5-yl}amino)pyridine-4-carbonitrile], the pIC50 is 6.72 in test [1] and 6.56 in test [3]. In test [2], this molecule showed a pEC50 of 7.92.

Take `Cc1cc(Nc2cc(Nc3ccccc3S(C)(=O)=O)c3nc(C)[nH]c3n2)nc(C)n1` [Example 4, 5-N-(2,6-dimethylpyrimidin-4-yl)-7-N-(2-methanesulfonylphenyl)-2-methyl-3H-imidazo[4,5-b]pyridine-5,7-diamine]: the figures for the negative logarithm of the IC50 (pIC50) in test [1] and in test [3] were 6.71 and 6.46, respectively. Further, in test [2], the pEC50 was 7.92.

In the case of `Cc1cnc(Nc2cc(Nc3ccccc3S(C)(=O)=O)c3nc(C)[nH]c3n2)cn1` [Example 15, 7-N-(2-methanesulfonylphenyl)-2-methyl-5-N-(5-methylpyrazin-2-yl)-3H-imidazo[4,5-b]pyridine-5,7-diamine], the pIC50 in test [1] is 6.68; in test [3], 6.74. The molecule also showed a pEC50 in test [2] of 7.51.

As to `Cc1nc2c(Nc3ccccc3S(C)(=O)=O)cc(Nc3cc(C)c(C#N)c(C)n3)nc2[nH]1` [Example 28, 6-({7-[(2-methanesulfonylphenyl)amino]-2-methyl-3H-imidazo[4,5-b]pyridin-5-yl}amino)-2,4-dimethylpyridine-3-carbonitrile], the figures for the pIC50 in test [1] and in test [3] were 7.28 and 7.15, respectively. For the same molecule, in test [2], the pEC50 is 8.05.

Turning to `Cc1nc2c(Nc3ccccc3S(C)(=O)=O)cc(Nc3cnc(C(F)(F)F)cn3)nc2[nH]1` [Example 12, 7-N-(2-methanesulfonylphenyl)-2-methyl-5-N-[5-(trifluoromethyl)pyrazin-2-yl]-3H-imidazo[4,5-b]pyridine-5,7-diamine], the pIC50 is 6.09 in test [1] and 6.45 in test [3]. Besides, the pEC50 in test [2] was 7.52.

As for `Cc1nc2c(Nc3ccccc3S(C)(=O)=O)nc(Nc3ccc(F)cc3)nc2[nH]1` [Example 1, N2-(4-fluorophenyl)-8-methyl-N6-(2-(methylsulfonyl)phenyl)-9H-purine-2,6-diamine], the pIC50 was 5.37 in test [1] and 5.85 in test [3]. In test [2], this molecule showed a pEC50 of 6.57.

In the case of `Cc1nc2c(Nc3ccccc3S(C)(=O)=O)cc(Nc3ccc(N4CCC(C)(O)CC4)cn3)nc2[nH]1` [Example 9, 1-[6-({7-[(2-methanesulfonylphenyl)amino]-2-methyl-3H-imidazo[4,5-b]pyridin-5-yl}amino)pyridin-3-yl]-4-methylpiperidin-4-ol], the values for the pIC50 in test [1] and in test [3] were 6.25 and 6.07, respectively. In test [2], this molecule had a pEC50 of 7.77.

As for `Cc1ccc(Nc2cc(Nc3ccccc3S(C)(=O)=O)c3nc(C)[nH]c3n2)nc1` [Example 21, 7-N-(2-methanesulfonylphenyl)-2-methyl-5-N-(5-methylpyridin-2-yl)-3H-imidazo[4,5-b]pyridine-5,7-diamine], the pIC50 was 6.70 in test [1] and 6.58 in test [3]. The molecule further had a pEC50 in test [2] of 7.57.

With `COc1ccc(Nc2cc(Nc3ccccc3S(C)(=O)=O)c3nc(C)[nH]c3n2)nc1` [Example 16, 7-N-(2-methanesulfonylphenyl)-5-N-(5-methoxypyridin-2-yl)-2-methyl-3H-imidazo[4,5-b]pyridine-5,7-diamine], the pIC50 was 6.89 in test [1] and 7.05 in test [3]. Also, the pEC50 in test [2] is 7.85.

As to `CCc1nc2c(Nc3ccccc3S(C)(=O)=O)cc(Nc3ccc(F)cn3)nc2[nH]1` [Example 51, 2-ethyl-5-N-(5-fluoropyridin-2-yl)-7-N-(2-methanesulfonylphenyl)-3H-imidazo[4,5-b]pyridine-5,7-diamine], the pIC50 in test [1] is 5.85; in test [3], 5.83. This molecule had a pEC50 in test [2] of 6.80.
